Key:
GCPII = GCPII (Homo sapiens, UniProt Q04609); experiment: fluorescence-based NAALADase assay, in vitro GCPII inhibitory activity; details: relative to 32a
cloned human GCPII = details: cited from earlier work
[1] = tested on: inflammatory and neuropathic pain models; details: cited from earlier work

Chain of GCPII (Q04609 whole entry): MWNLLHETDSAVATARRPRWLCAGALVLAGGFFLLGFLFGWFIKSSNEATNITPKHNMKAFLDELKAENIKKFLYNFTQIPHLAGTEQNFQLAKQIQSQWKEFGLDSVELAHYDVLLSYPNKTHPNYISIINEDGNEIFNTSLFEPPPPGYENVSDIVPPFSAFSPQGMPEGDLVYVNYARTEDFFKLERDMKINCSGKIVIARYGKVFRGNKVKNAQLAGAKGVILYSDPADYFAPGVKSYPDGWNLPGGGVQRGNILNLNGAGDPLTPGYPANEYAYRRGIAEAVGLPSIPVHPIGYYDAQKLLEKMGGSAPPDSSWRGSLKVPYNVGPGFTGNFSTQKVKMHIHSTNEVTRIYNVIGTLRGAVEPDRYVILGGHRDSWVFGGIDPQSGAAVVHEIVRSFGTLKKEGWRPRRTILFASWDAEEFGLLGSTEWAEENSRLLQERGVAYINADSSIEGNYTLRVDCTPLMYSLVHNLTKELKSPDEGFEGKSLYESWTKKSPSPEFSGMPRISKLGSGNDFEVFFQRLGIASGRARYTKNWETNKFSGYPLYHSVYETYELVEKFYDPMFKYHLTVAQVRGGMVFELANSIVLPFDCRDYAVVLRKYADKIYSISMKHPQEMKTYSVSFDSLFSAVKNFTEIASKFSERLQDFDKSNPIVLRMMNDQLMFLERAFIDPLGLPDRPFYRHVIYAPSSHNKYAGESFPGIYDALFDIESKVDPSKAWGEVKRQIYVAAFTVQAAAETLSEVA

Row | fold stronger binding affinity for GCPII compared to 32a (GCPII) | SMILES | Ki (cloned human GCPII) | penetration of the blood-brain barrier [1] | analgesic activity ([1]; high doses (50–100 mg/kg) needed)
1 | 4 fold | O=C(N[C@@H](CCCCNC(=O)c1ccc(I)cc1)C(=O)O)NC1(C(=O)O)CC1 [32c] |  |  | 
2 | 120 fold | C=CC[C@H](NC(=O)N[C@@H](CCCCNC(=O)c1ccc(I)cc1)C(=O)O)C(=O)O [32d] |  |  | 
3 |  | CC(C)C[C@H](NC(=O)N[C@@H](CCC(=O)O)C(=O)O)C(=O)O [ZJ-43, (S)-2-(3-((S)-1-carboxy-3-methylbutyl)ureido)pentanedioic acid] | 0.8 nM | low penetration | demonstrated analgesic activity
